Experimental data published in ChEMBL document CHEMBL1130456, “Nonpeptide glycoprotein IIb/IIIa inhibitors. 13. design and synthesis of an orally active pyrazolopiperazinone nonpeptide fibrinogen receptor antagonist” (Bioorg Med Chem Lett, 1997).
Where “and” joins values, the source holds several entries; their conditions need not be identical. Equal values may be shown once.

Species: Homo sapiens
Experiment: Concentration required for 50% inhibition of platelet aggregation of human gel-filtered platelets(GFP) in platelet aggregation assay
Assay type: functional

Point of comparison: `CC(=O)N[C@@H](CNC(=O)c1cc2n(n1)CCN(CCC1CCNCC1)C2=O)C(=O)O`, IC50 25 nM. Against it:
- O=C(N[C@@H](CNC(=O)c1cc2n(n1)CCN(CCC1CCNCC1)C2=O)C(=O)O)OCc1ccccc1 — 5-fold lower, 5 nM
- C=CCCS(=O)(=O)N[C@@H](CNC(=O)c1cc2n(n1)CCN(CCC1CCNCC1)C2=O)C(=O)O — 2.3-fold lower, 11 nM
- N[C@@H](CNC(=O)c1cc2n(n1)CCN(CCC1CCNCC1)C2=O)C(=O)O — 1.8-fold higher, 45 nM
- CS(=O)(=O)N[C@@H](CNC(=O)c1cc2n(n1)CCN(CCC1CCNCC1)C2=O)C(=O)O — 1.7-fold lower, 15 nM
- O=C(NCc1ccccc1)N[C@@H](CNC(=O)c1cc2n(n1)CCN(CCC1CCNCC1)C2=O)C(=O)O — within 1.5-fold, 22 nM
- C#C[C@H](CC(=O)O)NC(=O)c1cc2n(n1)CCN(CCC1CCNCC1)C2=O — 4.8-fold higher, 120 nM
- C[C@H](CC(=O)O)NC(=O)c1cc2n(n1)CCN(CCC1CCNCC1)C2=O — 10-fold higher, 260 nM

Tested on: Rhesus monkey
Experiment: Inhibition of platelet aggregation at 24 hr in response to collagen in conscious rhesus monkey
Assay type: functional, Cercopithecidae

For `CCCCS(=O)(=O)N[C@@H](CNC(=O)c1cc2n(n1)CCN(CCC1CCNCC1)C2=O)C(=O)O`, the Inhibition was 86% and 31%.

Tested on: Rhesus monkey
Experiment: Inhibition of platelet aggregation at 6 hr in response to ADP and collagen in conscious rhesus monkey
Assay type: functional, Cercopithecidae

With `CCCCS(=O)(=O)N[C@@H](CNC(=O)c1cc2n(n1)CCN(CCC1CCNCC1)C2=O)C(=O)O` the Inhibition was >90%.
